Assay results taken from ChEMBL document CHEMBL1833888, “Fuscoside E: a strong anti-inflammatory diterpene from Caribbean octocoral Eunicea fusca” (2011).
In brackets after ≈: the same amount, converted by molar mass. Activity calls are given as the source filed them. The rule behind the calls is not given here.

Columns and labels:
Mus musculus = experiment: Antiinflammatory activity in mouse assessed as inhibition of TPA-induced mouse ear edema at 0.5 mg/ear administered relative to untreated control; format: functional
[1] = tested on: Brucella pseudogrignonensis; experiment: Antibacterial activity against Ochrobactrum pseudogrignonense 21-6 pin by disc-diffusion assay; format: functional, organism-based
Bacillus sp. = experiment: Antibacterial activity against Bacillus sp. by disc-diffusion assay; format: functional, organism-based
Vibrio sp. = experiment: Antibacterial activity against Vibrio sp. 11-6 DEP; format: functional

SMILES	inhibition (INH) (Mus musculus) [%]	Activity [1]	Activity (Bacillus sp.)	MIC (Vibrio sp.) [µg/mL]
COc1ccc2c(c1)c(CC(=O)O)c(C)n2C(=O)c1ccc(Cl)cc1 [INDOMETHACIN]	77.3			
CC(C)CCC[C@@H](C)[C@H]1CC[C@H]2[C@@H]3CC=C4C[C@@H](O)CC[C@]4(C)[C@H]3CC[C@]12C		Active	Active	
C=C1/C=C/[C@@H](C(C)C)CC/C(C)=C/CC1	7.1	Active	Active	15 (≈ 73.4 µM)
C/C=C(\CC[C@@H](C)[C@H]1CC[C@H]2[C@@H]3CC=C4C[C@@H](O)CC[C@]4(C)[C@H]3CC[C@]12C)C(C)C		Active	Active	
C=C[C@@]1(C)CC[C@H](/C(C)=C/C=C/C(C)(C)O[C@@H]2OC[C@@H](O)[C@@H](O)[C@@H]2O)C[C@@H]1C(=C)C [FUSCOSIDE B]	81.5			
CC(=O)O[C@@H]1[C@H](O[C@H]2CC[C@H](C)[C@@]3(C)C[C@@H](/C(C)=C/CC=C(C)C)CC[C@H]23)OC[C@@H](O)[C@H]1O [FUSCOSIDE E]	80.5	Active	Active	
C=C[C@@]1(C)CC[C@H](/C(C)=C/C=C/C(C)(C)O)C[C@@H]1C(=C)C [FUSCOL]	27.3			
CC(C)C(C)/C=C/[C@@H](C)[C@H]1CC[C@H]2[C@@H]3CC=C4C[C@@H](O)CC[C@]4(C)[C@H]3CC[C@]12C (some centres not stated)		Active	Active	
CC(C)C/C=C/[C@@H](C)[C@H]1CC[C@H]2[C@@H]3CC=C4C[C@@H](O)CC[C@]4(C)[C@H]3CC[C@]12C		Active	Active	
C/C=C(/CC[C@@H](C)[C@H]1CC[C@H]2[C@@H]3CC=C4C[C@@H](O)CC[C@]4(C)[C@H]3CC[C@]12C)C(C)C		Active	Active	
CC(C)C(C)CC[C@@H](C)[C@H]1CC[C@H]2[C@@H]3CC=C4C[C@@H](O)CC[C@]4(C)[C@H]3CC[C@]12C (some centres not stated)		Active	Active	
